This is an account of results in ChEMBL document CHEMBL4406812, “Synthesis of quinones with highlighted biological applications: A critical update on the strategies towards bioactive compounds with emphasis on lapachones” (Eur J Med Chem, 2019).

Each structure is given as a SMILES string.

What is called IC50 is the midpoint of a concentration-inhibition curve.

For assay [1], the system named is OVCAR-8. Briefly: Cytotoxicity against human OVCAR8 cells assessed as reduction in cell viability after 48 hrs. The format is functional, cell-based. Conditions: OVCAR-8, 48 h.
Assay [2] has as its system SF-295. Briefly: Cytotoxicity against human SF295 cells assessed as reduction in cell viability after 48 hrs. The format is functional, cell-based. Particulars: SF-295, 48 h.
For assay [3], the system named is HCT-116. Description: Cytotoxicity against human HCT116 cells assessed as reduction in cell viability after 48 hrs. The format is functional, cell-based. Particulars: HCT-116, 48 h.
For assay [4], the system named is PC-3. Description: Cytotoxicity against human PC3 cells assessed as reduction in cell viability after 48 hrs. Conditions: PC-3, 48 h. The format is functional, cell-based.
For assay [5], the system named is HL-60. Briefly: Cytotoxicity against human HL60 cells assessed as reduction in cell viability after 48 hrs. Conditions: HL-60, 48 h. The format is functional, cell-based.
The subject of assay [6] is MDA-MB-435. Description: Cytotoxicity against human MDA-MB-435 cells assessed as reduction in cell viability after 48 hrs. It counts as functional, cell-based. Particulars: MDA-MB-435, 48 h.
The subject of assay [7] is MOLT-4. Description: Anticancer activity against human MOLT4 cells. It counts as functional, cell-based.
Assay [8] deals with HL-60. Briefly: Anticancer activity against human HL60 cells. The format is functional, cell-based.
Assay [9] deals with SW-620. Description: Anticancer activity against human SW620 cells. The format is functional, cell-based.
Assay [10] deals with SF-295. Description: Anticancer activity against human SF295 cells. The format is functional, cell-based.
Assay [11] deals with MDA-MB-231. Briefly: Anticancer activity against human MDA-MB-231 cells. It counts as functional, cell-based.
In assay [12] the test system is K562. Description: Anticancer activity against human K562 cells. The format is functional, cell-based.
Assay [13] relates to UACC-62. Briefly: Anticancer activity against human UACC62 cells. It counts as functional, cell-based.
Assay [14] relates to DU-145. Briefly: Anticancer activity against human DU145 cells. The format is functional, cell-based.
Assay [15] deals with PC-3. Briefly: Anticancer activity against human PC3 cells. The format is functional, cell-based.
For assay [16], the system named is MDA-MB-435. Description: Anticancer activity against human MDA-MB-435 cells. It counts as functional, cell-based.
Assay [17] concerns HCT-8. Briefly: Anticancer activity against human HCT8 cells. The format is functional, cell-based.
The subject of assay [18] is MX1. Description: Anticancer activity against human MX1 cells. It counts as functional, cell-based.
The test system of assay [19] is NCI-H460. Description: Anticancer activity against human NCI-H460 cells. It counts as functional, cell-based.
Assay [20] concerns HCT-116. Description: Anticancer activity against human HCT116 cells. It counts as functional, cell-based.
Assay [21] concerns Hs-578T. Description: Anticancer activity against human Hs578T cells. It counts as functional, cell-based.
Assay [22] has as its system Jurkat. Description: Anticancer activity against human Jurkat cells. It counts as functional, cell-based.
Assay [23] has as its system PBMC. Description: Cytotoxicity against human PBMC. The format is cell-based.
The test system of assay [24] is SF-268. Description: Anticancer activity against human SF268 cells. It counts as functional, cell-based.

For `CC1(C)OC2=C(C(=O)C(=O)c3ccccc32)C1Nc1cccc(-c2cn(C[Se]c3ccccc3)nn2)c1` (centres undefined), the IC50 in [1], in assay [2], in assay [3], in [4], in assay [5] and in assay [6] was below 100 nM each time.
With `Cc1cc(C)n2c1C(c1ccc(OCc3cn(C4C5=C(OC4(C)C)c4ccccc4C(=O)C5=O)nn3)cc1)=C1C=CC=[N+]1[B-]2(F)F` (centres undefined), the IC50 in [7], in assay [8], in [9], in [10], in assay [11] and in [12] was 340 to 2170 nM throughout. For the same compound, the IC50 in [13], in assay [14], in [15], in assay [16], in assay [17] and in [18] was 340 to 2170 nM throughout. The 50% inhibitory concentration (IC50) is 340 to 2170 nM in assay [19]; 340 to 2170 nM in assay [20]; 340 to 2170 nM in assay [21]; 340 to 2170 nM in [22]; 3260 nM in [23]; 340 to 2170 nM in assay [24].
